Consider twelve compounds from patent publication US5972698A, “Tryptase inhibitor” (Novartis Corporation, priority 1993, dated 1999).

*1 amine or outer side, *2 acyl side, *3 side chain or, on linkers, in order; H or OH if unused. Where a SMILES comes first, the peptide text is derived from it. CO = O=C([*:1])[*:2] A value given as a limit tells only on which side of the number the result lay.

The target in series [1] is Human tryptase. The settings on record: cited from earlier work.
Series [2] addresses Tryptase (human). Nature of the series: Inhibition of the amidolytic activity of tryptase / equilibrium dissociation constants (Ki). The format is biochemical. Here is the method:
h) Inhibitory activity: During the purification procedure the inhibitor was followed by measurements of its effect on the amidolytic activity of tryptase. Therefore, samples were incubated with tryptase (0.59 nM) in 50 mM Tris/HCl (pH 7.6), 150 mM NaCl, 50 μg/ml bovine lung heparin, and 0.1% (w/v) bovine serum albumin for 25 min at 37° C. The assay was started by addition of the substrate tos-Gly-Pro-Arg-pNa at a final concentration of 0.1 mM. The released nitroaniline was monitored spectrometrically at 405 nm for 3.5 min using a UVIKON 930 photometer (Kontron; Eching, Germany).
k) Determination of equilibrium constants: To determine the specificity of the inhibitor, its effect on the amidolytic activity of various serine proteinases (see Tab. 5) was determined. […] The residual enzyme activity was measured after addition of a suitable substrate.
Equilibrium dissociation constants (Ki) for the complexes of the inhibitor with individual proteases were determined essentially as described by Bieth [Bieth, 1980]. Briefly, increasing concentrations of the inhibitor were incubated with a constant concentration of the enzyme; the time necessary to reach equilibration of the enzyme-inhibitor complex was determined for each protease in preliminary experiments. Substrate was then added, and the residual enzyme activity measured. […]

Series [3] can be described thus: Isoelectric focussing (PhastSystem). The format is physicochemical. Here is the method: a) SDS-PAGE and isoelectric focussing (IEF) SDS-PAGEs of the proteins were performed with 15-25% polyacrylamide gels following the procedure of Laemmli [Laemmli, 1970]. The gels were either self-prepared and run in a conventional apparatus or in the PhastSystem (Pharmacia, Sollentuna, Sweden). Isoelectric focussing was also done with the PhastSystem using the isoelectric focussing calibration kit pH 3-10.

Take `CC(C)[C@H](NC(=O)[C@H](CCCNC(=N)N)NC(=O)N[C@@H](Cc1ccccc1)C(=O)O)C(=O)N[C@H](C=O)CCCNC(=N)N` [antipain] ({Phe-CO}-Arg-Val-Arg-aldehyde): in series [1], the “Ki values for the complexes with tryptase (literature)” value is “micromolar range”.

For `CC(=O)N[C@@H](CC(C)C)C(=O)N[C@@H](CC(C)C)C(=O)N[C@H](C=O)CCCNC(=N)N` [leupeptin], in series [1], the “Ki values for the complexes with tryptase (literature)” value is listed as “micromolar range”.

On to `O=S(=O)(F)Cc1ccccc1` [phenylmethylsulfonyl fluoride], for which the “inhibition of tryptase (literature)” value in series [1] was “inhibited”.

“C1 -esterase inhibitor: naturally occurring antiproteinase”: in series [1], the “inhibition of tryptase (literature)” value is listed as “not inhibited”.

Regarding “alpha1 -proteinase inhibitor: naturally occurring antiproteinase”, in series [1], the “inhibition of tryptase (literature)” value is listed as “not inhibited”.

Turning to “alpha2 -macroglobulin: naturally occurring antiproteinase”, the “inhibition of tryptase (literature)” value in series [1] is recorded as “not inhibited”.

With antithrombin III, in series [1], the “inhibition of tryptase (literature)” value is “not inhibited”.

Take aprotinin: in series [1], the “inhibition of tryptase (literature)” value is “not affected”.

With ecotin: proteinase inhibitor, the “inhibition of tryptase (literature)” value in series [1] is given as “not affected”.

With hirudin, the “inhibition of tryptase (literature)” value in series [1] is on record as “not affected”.

Take “rLDTI-C: recombinant form C inhibitor expressed in Saccharomyces cerevisiae with secretion vector pVT102U/alpha and strain S-78 (KKVCACPKILKPVCGSDGRTYANSCIARCNGVSIKSEGSCPTGILN)”: in series [2] (Ki for the inhibition of two of the four subunits of the tryptase-tetramer, substrate Tos-Gly-Pro-Arg-pNA, read-out: Ki (second Ki column)), the Ki worked out at 1.9 nM. In addition, the “maximal inhibition of human tryptase” value in series [2] (substrate tos-Gly-Pro-Arg-pNa) is given as ~ 50%. Further, the isoelectric point in series [3] was greater than 10 pH.

For the compound tosyl-L-lysine chloromethyl ketone, the “inhibition of tryptase (literature)” value in series [1] was “inhibited”.
